Source: US10350244B2, “Pharmaceutical composition for the treatment of diseases in which LPS- and/or apoptosis regulation is disturbed” (priority 2013, dated 2019)

Key:
Type in all cases: cell-based, human
[1] = tested on: MNC; assay: Cytokine production by MNC after incubation (Luminex immunobead multiplex assay)
Excerpt: (§1) Peripheral blood mononuclear cells (PBMC, i.e., mononuclear cells (MNC)). This refers to mononuclear blood cells which have a round cell nucleus. These are, for example, lymphocytes and monocytes. Said cells play an important role in the immune system in controlling infections. PBMC or MNC are frequently employed in diagnostics as an indicator for infections which are present, as a factor for prognosing the course of an HIV infection and in clinical research. From the blood and sera collection of the tumor tissue bank and the tumor cells of an individual tumor patient that were likewise stored in said bank, they were, after passing through a specific thawing/revitalization procedure, examined for their protein and gene expression, apoptosis behavior and their released messenger substances (cytokine profiles) under the influence of the colostrum preparation Lactobin® N, vitamin D3 and also the combination in a specifically selected repertoire of methods.
(§2) After collection, EDTA tubes were left to stand at room temperature (RT) for 60 min. Thereafter, serum was removed, divided into portions (1 ml/tube) and stored in −80° C. The blood was centrifuged at 311 g for 10 min. Thereafter, 1 part whole blood+5 parts lysis buffer were mixed, left to stand at RT for 15 min and then centrifuged at 311 g for 10 min. The supernatant was discarded and the pellet was washed with RPMI 1640 medium (repeated 3×). The cells were then counted and frozen at −170° C. in nitrogen at 5×10^6/ml (freezing medium: RPMI 1640 medium containing 5% DMSO, dimethyl sulfoxide=cryopreservation). In addition, the immune status was measured from one tube (FACS analysis, see below).
The cryotube to be thawed was removed from the nitrogen and immediately transferred to a 37° C. water bath. Once the cells had detached from the inner wall of the cryotube (1-1.5 min), they were transferred to a sterile 50 ml Falcon tube containing 40 ml of cold medium. After a 5-minute centrifugation at 400 g, the medium was removed, the cell pellet was resuspended in 6 ml of warmed-up medium and the cells were counted. […]
Interleukin (IL)-12 and proinflammatory factors such as […], IL-6, IFN-γ, TNF-α and anti-inflammatory factors such as IL-10 and IL-13 in the serum samples were measured in duplicate using an immunobead-based multiplex assay. The assays were carried out on a Bio-Plex system (Biosource).
The microspheres coated with mixtures of corresponding capture antibodies and the labeled detection antibodies were purchased from Biosource (Camarillo, […]). The reagents had already been tested and qualified by the manufacturer to rule out a cross-reactivity of the antibody-coated microspheres.
The Luminex measurements were carried out in order to determine further expressed MNC cytokines. 25 μl of antibody-coated microspheres were added to 96-well plates [mixture of the cytokines GM-CSF, IFN-γ, IL-1β, IL-2, IL-4, IL-5, IL-6, IL-8, IL-10 and TNF-α; ready-prepared kit, from Biosource International, California, USA]. After washing had been carried out twice, 50 μl of incubation buffer, 50 μl of ready-prepared sample dilution and 50 μl of sample were pipetted into each well. The plates were incubated in the dark on a shaker for 2 hours at room temperature and again washed twice. Thereafter, 100 μl of the biotinylated detection antibody were added to each well, incubated in the dark on a shaker for a further hour at room temperature, and again washed twice. 100 μl of SAV-RPE (R-phycoerythrin fluorescent dye, from Biosource International) were pipetted into each well, the plates were again shaken in the dark for 30 min at room temperature and washed three times. Each assay preparation was adjusted with 100 μl of wash buffer per well as the final volume and the plates were measured in the Luminex reader (Luminex 100, from Luminex Applied Systems, Sheffield, UK). […]

[2] = tested on: MNC; assay: IGF-1 protein determination (ELISA) in MNC incubations
Excerpt: as §1
The examinations were carried out in order to detect the cytokine insulin-like growth factor 1 (IGF-1) present in the samples. To this end, use was made of enzyme-linked immunosorbent assay (ELISA) sets (from Biosource International, California, USA) in accordance with the protocol instructions from the manufacturer. 50 μl of standard sample, control and the samples were pipetted per well into 96-well plates coated with anti-IGF-1. Thereafter, 50 μl of biotin conjugate (second antibody against IGF-1) were added. Subsequently, the plates were incubated at room temperature for 90 min, washed four times, and 100 μl of streptavidin-HRP working solution were pipetted into the wells and the plate was incubated at room temperature for 45 min. Thereafter, the plates were again washed four times, 100 μl of stabilized chromogen were added and incubated at room temperature for 30 min. Lastly, 100 μl of stop solution were pipetted. The results were read off on the ELISA reader at 450 nm (Dynatech Laboratories, Sullyfield, USA).
To prepare a preparation according to the invention, the above-described colostrum powder (preferably Lactobin N) was admixed with an appropriate amount of the vitamin D3-containing powder, achieving the inventive concentration of vitamin D3. A mixing ratio used according to the invention was 0.2 mg of the vitamin D3-containing powder per gram of colostrum powder (0.2 mg/g). This yielded 0.5 μg of vitamin D3/g of ready-made preparation for the samples. A recommended daily dose is 10 g of ready-made preparation, i.e., 5 μg of vitamin D3. […] Similarly, only the vitamin D3 preparation was used when the samples were treated only with vitamin D3 (e.g., “Vit. D3” in Table 1).

[3] = tested on: monocytes from the blood of patients with CRC; assay: Gene expression in MNC/monocytes from blood of CRC patients (RT-qPCR); details: monocytes from blood of CRC patients UICC I to IV, 12-hour incubation, synergism in UICC I-III, FIG. 5
Description: as §2
RNA was extracted from MNCs and homogenized tumor tissue using the RNA Extraction Kit (Qiagen, Hilden, Germany), washed in DEPC 75% ethanol solution and then stored at −70° C. until it was processed further. The amount of RNA was determined by measuring absorption at 260 nm. The 260:280 ratio was determined within the 1.8-2.0 range; it was thus possible to prevent a contamination of the RNA by proteins. […]
The ‘real-time reverse transcription polymerase chain reaction’ method (real-time RT-PCR for short) is used for determining the expression of various genes. Said method allows the quantification of the expression of a gene in question in relation to the control genes. […]

[4] = MNC of CRC patients UICC I (n = 6)
[5] = MNC of CRC patients UICC II (n = 6)
[6] = MNC of CRC patients UICC III (n = 6)
[7] = MNC of CRC patients UICC IV (n = 6)

## C=C1CC[C@H](O)C/C1=C/C=C1\CCC[C@]2(C)[C@@H]([C@H](C)CCCC(C)C)CC[C@@H]12 [Vit D3, cholecalciferol]
[1]; [4]
  IFN-γ: 58.5 pg/mL
  IL-1β: 42.5 pg/mL
  IL-6: 98.7 pg/mL
  IL-10: 18.3 pg/mL
  IL-12: 74.9 pg/mL
  IL-13: 30.1 pg/mL
  TNF-α: 83.6 pg/mL
[1]; [5]
  IFN-γ: 77.3 pg/mL
  IL-1β: 34.8 pg/mL
  IL-6: 102.8 pg/mL
  IL-10: 18.1 pg/mL
  IL-12: 80.1 pg/mL
  IL-13: 27.9 pg/mL
  TNF-α: 169.1 pg/mL
[1]; [6]
  IFN-γ: 215.9 pg/mL
  IL-1β: 169.4 pg/mL
  IL-6: 91.7 pg/mL
  IL-10: 17.9 pg/mL
  IL-12: 214.7 pg/mL
  IL-13: 26.1 pg/mL
  TNF-α: 331.5 pg/mL
[1]; [7]
  IFN-γ: 292.5 pg/mL
  IL-1β: 369.9 pg/mL
  IL-6: 213.1 pg/mL
  IL-10: 7.9 pg/mL
  IL-12: 499.9 pg/mL
  IL-13: 9.1 pg/mL
  TNF-α: 413.1 pg/mL
[1]; MNC of Control (n = 6)
  IFN-γ: 12.8 pg/mL
  IL-1β: 4.8 pg/mL
  IL-6: 3.3 pg/mL
  IL-10: 27.9 pg/mL
  IL-12: 47.7 pg/mL
  IL-13: 43.6 pg/mL
  TNF-α: 62.6 pg/mL
[2]; [4]
  IGF-1: 148.6 ng/mL
[2]; [5]
  IGF-1: 213.4 ng/mL
[2]; [6]
  IGF-1: 299.1 ng/mL
[2]; [7]
  IGF-1: 896.4 ng/mL
[2]; MNC of Control (n = 6)
  IGF-1: 90.3 ng/mL
[3]
  expression of the IGF-1 gene in MNC: drop in the gene expression profile
